Reference: publication PMC8977034, “Amphipathic dendritic poly-peptides carrier to deliver antisense oligonucleotides against multi-drug resistant bacteria in vitro and in vivo” (Journal of Nanobiotechnology, 2022)

What was measured:
[1] = test system: ESBLs-E. coli; assay: Survival assay in mouse sepsis model; format: in vivo, male Balb/c mice; details: text 1.5 mg kg^−1, methods and Fig. 5 legend 4 mg/kg; i.p. at 0.5 and 6 h after infection; n = 10
Experimental: Male Balb/c mice (6–8 weeks old and weighing 18–22 g) were used in this experiment. The experimental and animal care procedures were approved by the Animal Care and Use Committee of Fourth Military Medical University. All methods were carried out strictly in accordance with the approved guidelines. 4 × 10^5 CFU ESBLs-E. coli in 400 μl M–H broth were administrated intraperitoneally into the mice to construct a sepsis model. Then, the mice were randomly divided to ten groups, which were administered intraperitoneally with 400 μL solutions containing 0.5 (based on ASOs), 1 or 1.5 mg kg^−1 DP-AD7anti-acpP and the counterpart DP-AD7mismatch, 1.5 mg kg^−1 L-DP-AD7anti-acpP, 1.5 mg kg^−1 LF2000-NPsanti-acpP, 4 mg kg^−1 ceftazidime or PBS at 0.5 and 6 h after infection. The surviving mice in each group were monitored every 6 h for the first day, afterwards, monitored every 12 h for 7 days day after infection, and the survival ratio was analyzed by Kaplan–Meier estimator.

[2] = test system: ESBLs-E. coli; assay: Bacterial load (CFU) in organs of septic mice; format: in vivo, male Balb/c mice; details: text 1.5 mg kg^−1, methods 4 mg kg^−1; ten hours after infection; mean ± SE
Experimental: Two mice in each group were sacrificed 10 h after infection to study the bacterial clearance. The liver and kidney were harvested aseptically, one kidney and one lobe of liver of each mouse were weighed, and homogenized in 500 μl sterile saline solution, then 50 μl homogenate sample of each mice was performed serial tenfold dilutions to a 10^–5 dilution. Carefully spread 100 μL of each dilution onto a M–H agarose plate using a glass spreader. Incubate plates at 37 °C overnight and calculate the bacterial load. Colony counts were expressed as CFU g^−1 of tissue.

[3] = test system: E. coli, ESBLs-E. coli, S. aureus and MRSA; assay: Delivery efficiency by flow cytometry, tested strains together; format: cell-based; details: FAM-labeled, 1 h, 37 °C, flow cytometry (Fig. S9, S10)
Experimental: To measure the delivery efficiency, FAM-labeled DP-AD were added to bacterial cultures (approximately 5 × 10^6 CFU in 300 μl M–H broth) and incubated at 37 °C for 1 h away from light. The bacterial solutions were centrifuged at 2500 g at 4 °C for 5 min and washed twice with phosphate buffered saline (PBS) before analyzing them using the BL1 (green) channel in flow cytometry (Novocyte, Acer, USA). Data were analyzed using Flowjo software (version 10.0.7, Tree Star, Ashland, OR, USA). Free FAM-labeled ASOs and LF2000-NPs were used as the negative and positive control, respectively.
To measure the delivery rate of DP-AD7 in different types of bacteria, the bacteria (approximately 5 × 10^6 CFU in 300 μl M–H broth) were incubated with FAM-labeled DP-AD7 for 5, 10, 30 or 60 min at 37 °C or at 4 °C for 60 min in dark, then the bacterial solutions were processed, measured and analyzed as described above.

Row | Molecule | Survival rate of septic mice, ceftazidime [1] [%] | Average bacterial load in the kidney, ceftazidime [2] | Capacity to deliver ASOs into bacteria [3]
1 | CC(C)(O/N=C(\C(=O)N[C@@H]1C(=O)N2C(C(=O)[O-])=C(C[n+]3ccccc3)CS[C@H]12)c1csc(N)n1)C(=O)O [ceftazidime] | 30 | 8.41 ± 1.60 × 10^7 CFU g^−1 | –
2 | Ac-LWALWK(Ac)K(Ac)K(Ac)RRHRRRHR [L-DPP, linear counterpart of DPP7, amphipathic, 9 positive charge and 2 His residues] | – | – | failure
